Data reported in PMC6930567, “NMR Study of the Secondary Structure and Biopharmaceutical Formulation of an Active Branched Antimicrobial Peptide” (Molecules, 2019).
Where a name gives a salt, the structure may show the parent alone. Read-outs that look alike come from different tables or passages of the source. Positions of bridges follow the written chain, without caps; N, C: chain ends. Non-standard residues stand in square brackets, D forms with d. Residues, ends and D or L forms follow the SMILES beside them. Chains are numbered I, II in the order given. βAla = NCCC(=O)O

What was measured:
[1] = test system: CD1 mice; settings: cited from earlier work; for signs of acute toxicity in vivo: scored not-observable, mild, severe
Experimental: (§1) Table 4 Signs of acute toxicity in vivo of the three SET-M33 salts. | column: 20 mg/kg; 25 mg/kg || Acute toxicity of SET-M33 chloride was tested in mice and compared with the acetate and TFA counter-ions. Ten animals per group (five males and five females) were injected with two doses of SET-M33 chloride, 20 and 30 mg/kg, known to be below the LD50 [7]. Signs of toxicity were scored as not-observable, mild and severe. SET-M33 chloride and SET-M33 acetate scored 100% not-observable (Table 4), unlike the TFA that scored 100% toxicity at 25 mg/kg, described as 33% severe and 66% mild.

[2] = test system: T24 human bladder epithelial cells; assay type: cell-based; settings: 48 h
Experimental: (§2) T24 human epithelial bladder cells, 16HBE14o- human bronchial epithelial cells and RAW264.7 mouse macrophages were plated at a density of 2.5 × 10^4 cells/well in 96-well microplates. The 16HBE14o- cells were previously incubated with coating solution (88% LHC basal medium, 10% bovine serum albumin, 30 µg/mL bovine collagen type I and 1% human fibronectin). Different concentrations of SET-M33 TFA, acetate and chloride were added 24 h after plating. Cells were grown for 48 h at 37 °C. Their viability was assessed by 3-(4,5-dimethylthiazol-2-yl)2,5-diphenyltetrazolium bromide (MTT) assay. EC50 values were obtained by dose-response variable slope analysis using GraphPad Prism 5.03 software (San Diego, CA, USA).

[3] = test system: 16HBE14o- human bronchial epithelial cells; assay type: cell-based; settings: 48 h
Experimental: as §2

[4] = test system: RAW264.7 mouse macrophages; assay type: cell-based; settings: 48 h
Experimental: as §2

[5] = test system: CD1 mice; assay: Acute toxicity in mice; assay type: in vivo, mouse; settings: for signs of acute toxicity in vivo: 10/group, monitored 96 h, scored not-observable, mild, severe; for share of animals scored not-observable for signs of toxicity: i.v. single dose, chloride 20 and 30 mg/kg, acetate 25 and 30 mg/kg
Experimental: as §1, with “Acute” for “Table 4 Signs of acute toxicity in vivo of the three SET-M33 salts. | column: 20 mg/kg; 25 mg/kg || Acute”
All animal experiments were conducted under the protocol approved by the Italian Ministry of Health at the Toscana Life Sciences Foundation animal facility in Siena, Italy (authorization n. 34/2016PR). Animals (10 CD1 mice/group, 20–22 g) were injected i.v. with SET-M33 acetate (group 1 and group 2) and SET-M33 chloride (group 3 and group 4), in a single dose. The doses were: group 1, 25 mg/kg SET-M33 acetate; group 2, 30 mg/kg SET-M33 acetate; group 3, 20 mg/kg SET-M33 chloride and group 4, 30 mg/kg SET-M33 chloride. Animals were monitored for 96 h. Signs of toxicity were checked four times a day by visual inspection and were scored as not-observable, mild and severe. Mice were weighed every day from arrival to the last day of the experiment. Animals with clear signs of distress, such as reduced mobility and weight loss greater than 20%, were anesthetized and sacrificed with carbon dioxide or by cervical dislocation.

[6] = test system: P. aeruginosa PAO-1; assay type: cell-based; settings: PAO-1, 24 h
Experimental: (§3) Antimicrobial susceptibility was assessed by determining the minimum inhibitory concentrations (MICs) of SET-[…] acetate and SET-[…] chloride against E. coli TG-1 and P. aeruginosa PAO-1, using the broth microdilution technique according to 2017 EUCAST guidelines. The MIC assay measures visible inhibition of bacterial growth after 24 h exposure of bacteria to antibiotic in Mueller-Hinton (MH) broth. Assays were performed in triplicate using a bacterial inoculum of 5 × 10^4 CFU/well in a final volume of 100 μL. The twofold antibiotic concentration ranged from 0.1 μM to 12 μM for both peptides. MICs were read after 24 h of incubation at 35 °C.

[7] = test system: E. coli TG-1; assay type: cell-based; settings: TG-1, 24 h
Experimental: as §3

For CC[C@H](C)[C@H](NC(=O)[C@H](CCCCN)NC(=O)[C@@H](N)CCCCN)C(=O)N[C@@H](CCCNC(=N)N)C(=O)N[C@H](C(=O)N[C@@H](CCCNC(=N)N)C(=O)N[C@@H](CC(C)C)C(=O)N[C@@H](CO)C(=O)N[C@@H](C)C(=O)NCCCC[C@H](NC(=O)[C@H](C)NC(=O)[C@H](CO)NC(=O)[C@H](CC(C)C)NC(=O)[C@H](CCCNC(=N)N)NC(=O)[C@@H](NC(=O)[C@H](CCCNC(=N)N)NC(=O)[C@@H](NC(=O)[C@H](CCCCN)NC(=O)[C@@H](N)CCCCN)[C@@H](C)CC)C(C)C)C(=O)NCCCC[C@H](NC(=O)[C@H](CCCCNC(=O)[C@H](C)NC(=O)[C@H](CO)NC(=O)[C@H](CC(C)C)NC(=O)[C@H](CCCNC(=N)N)NC(=O)[C@@H](NC(=O)[C@H](CCCNC(=N)N)NC(=O)[C@@H](NC(=O)[C@H](CCCCN)NC(=O)[C@@H](N)CCCCN)[C@@H](C)CC)C(C)C)NC(=O)[C@H](C)NC(=O)[C@H](CO)NC(=O)[C@H](CC(C)C)NC(=O)[C@H](CCCNC(=N)N)NC(=O)[C@@H](NC(=O)[C@H](CCCNC(=N)N)NC(=O)[C@@H](NC(=O)[C@H](CCCCN)NC(=O)[C@@H](N)CCCCN)[C@@H](C)CC)C(C)C)C(=O)NCCC(=O)O)C(C)C [SET-M33 TFA] (I: H-KKIRVRLSAKK[βAla]-OH / II: H-KKIRVRLSAK / III: H-KKIRVRLSA / IV: H-KKIRVRLSA; amide I:10-IV:C, I:11-II:C, II:10-III:C), the “signs of acute toxicity in vivo” value ([1]; 25 mg/kg) is given as “mild to severe”, the “share of animals with mild signs of toxicity” value ([1]; 25 mg/kg) is given as 66% and the “share of animals with severe signs of toxicity” value ([1]; 25 mg/kg) is given as 33%. The “toxicity score (share of animals with signs of toxicity)” value ([1]; 25 mg/kg) was 100%, the EC50 [2] was 13.6 µM and the EC50 [3] was 11.1 µM. It also gave an EC50 [4] of 3.85 µM.
In the case of CC[C@H](C)[C@H](NC(=O)[C@H](CCCCN)NC(=O)[C@@H](N)CCCCN)C(=O)N[C@@H](CCCNC(=N)N)C(=O)N[C@H](C(=O)N[C@@H](CCCNC(=N)N)C(=O)N[C@@H](CC(C)C)C(=O)N[C@@H](CO)C(=O)N[C@@H](C)C(=O)NCCCC[C@H](NC(=O)[C@H](C)NC(=O)[C@H](CO)NC(=O)[C@H](CC(C)C)NC(=O)[C@H](CCCNC(=N)N)NC(=O)[C@@H](NC(=O)[C@H](CCCNC(=N)N)NC(=O)[C@@H](NC(=O)[C@H](CCCCN)NC(=O)[C@@H](N)CCCCN)[C@@H](C)CC)C(C)C)C(=O)NCCCC[C@H](NC(=O)[C@H](CCCCNC(=O)[C@H](C)NC(=O)[C@H](CO)NC(=O)[C@H](CC(C)C)NC(=O)[C@H](CCCNC(=N)N)NC(=O)[C@@H](NC(=O)[C@H](CCCNC(=N)N)NC(=O)[C@@H](NC(=O)[C@H](CCCCN)NC(=O)[C@@H](N)CCCCN)[C@@H](C)CC)C(C)C)NC(=O)[C@H](C)NC(=O)[C@H](CO)NC(=O)[C@H](CC(C)C)NC(=O)[C@H](CCCNC(=N)N)NC(=O)[C@@H](NC(=O)[C@H](CCCNC(=N)N)NC(=O)[C@@H](NC(=O)[C@H](CCCCN)NC(=O)[C@@H](N)CCCCN)[C@@H](C)CC)C(C)C)C(=O)NCCC(=O)O)C(C)C [SET-M33 chloride] (I: H-KKIRVRLSAKK[βAla]-OH / II: H-KKIRVRLSAK / III: H-KKIRVRLSA / IV: H-KKIRVRLSA; amide I:10-IV:C, I:11-II:C, II:10-III:C), the “signs of acute toxicity in vivo” value ([5]; 20 mg/kg i.v. single dose) is reported as “not-observable”, the “signs of acute toxicity in vivo” value ([5]; 30 mg/kg i.v. single dose) is reported as “not-observable” and the “share of animals scored not-observable for signs of toxicity” value [5] is reported as 100%. It also gave an MIC [6] of 1.5 µM, an MIC [7] of 1.5 µM and an EC50 [2] of 22.6 µM. The EC50 [3] was 10.3 µM and the EC50 [4] was 6.12 µM.
In the case of CC[C@H](C)[C@H](NC(=O)[C@H](CCCCN)NC(=O)[C@@H](N)CCCCN)C(=O)N[C@@H](CCCNC(=N)N)C(=O)N[C@H](C(=O)N[C@@H](CCCNC(=N)N)C(=O)N[C@@H](CC(C)C)C(=O)N[C@@H](CO)C(=O)N[C@@H](C)C(=O)NCCCC[C@H](NC(=O)[C@H](C)NC(=O)[C@H](CO)NC(=O)[C@H](CC(C)C)NC(=O)[C@H](CCCNC(=N)N)NC(=O)[C@@H](NC(=O)[C@H](CCCNC(=N)N)NC(=O)[C@@H](NC(=O)[C@H](CCCCN)NC(=O)[C@@H](N)CCCCN)[C@@H](C)CC)C(C)C)C(=O)NCCCC[C@H](NC(=O)[C@H](CCCCNC(=O)[C@H](C)NC(=O)[C@H](CO)NC(=O)[C@H](CC(C)C)NC(=O)[C@H](CCCNC(=N)N)NC(=O)[C@@H](NC(=O)[C@H](CCCNC(=N)N)NC(=O)[C@@H](NC(=O)[C@H](CCCCN)NC(=O)[C@@H](N)CCCCN)[C@@H](C)CC)C(C)C)NC(=O)[C@H](C)NC(=O)[C@H](CO)NC(=O)[C@H](CC(C)C)NC(=O)[C@H](CCCNC(=N)N)NC(=O)[C@@H](NC(=O)[C@H](CCCNC(=N)N)NC(=O)[C@@H](NC(=O)[C@H](CCCCN)NC(=O)[C@@H](N)CCCCN)[C@@H](C)CC)C(C)C)C(=O)NCCC(=O)O)C(C)C [SET-M33 acetate] (I: H-KKIRVRLSAKK[βAla]-OH / II: H-KKIRVRLSAK / III: H-KKIRVRLSA / IV: H-KKIRVRLSA; amide I:10-IV:C, I:11-II:C, II:10-III:C), the “signs of acute toxicity in vivo” value ([5]; 25 mg/kg i.v. single dose) is reported as “not-observable”, the “signs of acute toxicity in vivo” value ([5]; 30 mg/kg i.v. single dose) is reported as “not-observable” and the “share of animals scored not-observable for signs of toxicity” value [5] is reported as 100%. For the same molecule, the “signs of acute toxicity in vivo” value ([1]; 20 mg/kg) was “not-observable [6]”, the MIC [6] was 3 µM and the MIC [7] was 1.5 µM. For the same molecule, the EC50 [2] was 12.4 µM, the EC50 [3] was 9.62 µM and the EC50 [4] was 5.1 µM.
